tested on: HBV rcDNA; test: HepDE19 assay with bDNA quantitation of HBV rcDNA; assay type: cell-based, hepatitis B virus; settings: HepDE19 cells, Tet-free medium, 7 day-incubation, rcDNA measured by Quantigene 2.0 bDNA assay, top concentration 25 μM; read-out: DE-19 bDNA EC50
Outline: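 HepDE19 cells (50,000/well) switched to Tet-free medium, then treated 7 days at 37° C with compounds from 25 μM (½-log, 8-point, duplicate; 0.5% DMSO). rcDNA quantified by bDNA with HBV probes; EC50/EC90 by 4-parameter fit. CC50 from CTG ATP on 5,000 cells/well after 4 days.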

Row | Structure (SMILES) | EC50 [nM]
1 | Cn1cc2c(c1C(=O)Nc1ccc(F)c(Cl)c1)CCC2NS(=O)(=O)C1CC1 (single isomer, unassigned) [Compound 14, N-(3-Chloro-4-fluorophenyl)-4-(cyclopropanesulfonamido)-2-methyl-2,4,5,6-tetrahydrocyclopenta [c]pyrrole-1-carboxamide] | 70
2 | Cn1c(Cl)c2c(c1C(=O)Nc1ccc(F)c(Cl)c1)CCC2NC(=O)OCc1cn[nH]n1 (single isomer, unassigned) [Compound 107, (2H-1,2,3-Triazol-4-yl)methyl (3-chloro-1-((3-chloro-4-fluorophenyl)carbamoyl)-2-methyl-2,4,5,6-tetrahydrocyclopenta[c]pyrrol-4-yl)carbamate] | 10
3 | CNC(=O)NC1CCc2c1c[nH]c2C(=O)Nc1ccc(F)c(Cl)c1 (single isomer, unassigned) [Compound 11, N-(3-Chloro-4-fluorophenyl)-4-(3-methylureido)-2,4,5,6-tetrahydrocyclopenta[c]pyrrole-1-carboxamide] | 2400
4 | Cn1c(C(=O)Nc2ccc(F)c(Cl)c2)c2c(c1C1CC1)C(NC(=O)OCc1nc[nH]n1)CC2 (single isomer, unassigned) [Compound 98, (1H-1,2,4-Triazol-3-yl)methyl (1-((3-chloro-4-fluorophenyl)carbamoyl)-3-cyclopropyl-2-methyl-2,4,5,6-tetrahydrocyclopenta[c]pyrrol-4-yl)carbamate] | 15000
5 | Cn1c(C(=O)Nc2ccc(F)c(Cl)c2)c2c(c1C(F)(F)F)C(NC(=O)OCc1cn[nH]n1)CC2 (single isomer, unassigned) [Compound 132, (2H-1,2,3-Triazol-4-yl)methyl (1-((3-chloro-4-fluorophenyl)carbamoyl)-2-methyl-3-(trifluoromethyl)-2,4,5,6-tetrahydrocyclopenta[c]pyrrol-4-yl)carbamate] | 13000
6 | Cn1c(C(=O)Nc2ccc(F)c(Cl)c2)c2c(c1C(F)(F)F)C(NC(=O)OCc1nc[nH]n1)CC2 (single isomer, unassigned) [Compound 126, (1H-1,2,4-Triazol-3-yl)methyl (1-((3-chloro-4-fluorophenyl)carbamoyl)-2-methyl-3-(trifluoromethyl)-2,4,5,6-tetrahydrocyclopenta[c]pyrrol-4-yl)carbamate] | 8700
7 | CCn1cc2c(c1C(=O)Nc1ccc(F)c(Cl)c1)CCC2NC(=O)OCc1ncn(C)n1 (single isomer, unassigned) [Compound 20, (1-Methyl-1H-1,2,4-triazol-3-yl)methyl (1-((3-chloro-4-fluorophenyl)carbamoyl)-2-ethyl-2,4,5,6-tetrahydrocyclopenta[c]pyrrol-4-yl)carbamate] | 180
8 | Cn1c(Cl)c2c(c1C(=O)Nc1ccc(F)c(Cl)c1)CCC2NC(=O)OCc1nc[nH]n1 (single isomer, unassigned) [Compound 105, (1H-1,2,4-Triazol-3-yl)methyl (3-chloro-1-((3-chloro-4-fluorophenyl)carbamoyl)-2-methyl-2,4,5,6-tetrahydrocyclopenta[c]pyrrol-4-yl)carbamate] | 10
9 | Cc1c2c(c(C(=O)Nc3ccc(F)c(Cl)c3)n1C)CCC2NC(=O)OCc1c[nH]nn1 (single isomer, unassigned) [Compound 130, (1H-1,2,3-Triazol-4-yl)methyl (1-((3-chloro-4-fluorophenyl)carbamoyl)-2,3-dimethyl-2,4,5,6-tetrahydrocyclopenta[c]pyrrol-4-yl)carbamate] | 9000
10 | Cn1cnc(COC(=O)NC2CCc3c2c(Cl)n(C)c3C(=O)Nc2ccc(F)c(Cl)c2)n1 (single isomer, unassigned) [Compound 51, (1-Methyl-1H-1,2,4-triazol-3-yl)methyl (3-chloro-1-((3-chloro-4-fluorophenyl)carbamoyl)-2-methyl-2,4,5,6-tetrahydrocyclopenta[c]pyrrol-4-yl)carbamate] | 10
11 | Cn1cc2c(c1C(=O)Nc1ccc(F)c(Cl)c1)CCC2NC(=O)OCc1n[nH]nc1C1CC1 (single isomer, unassigned) [Compound 146, (5-Cyclopropyl-2H-1,2,3-triazol-4-yl)methyl (1-((3-chloro-4-fluorophenyl)carbamoyl)-2-methyl-2,4,5,6-tetrahydrocyclopenta[c]pyrrol-4-yl)carbamate] | 9300

same assay, conditions: Hepatitis B virus, HepDE19, 168 h, HepDE19 cells, Tet-free medium, 7 day-incubation, rcDNA measured by Quantigene 2.0 bDNA assay, top concentration 25 μM; read-out: DE-19 bDNA EC50

Row | Structure (SMILES) | EC50 [nM]
12 | Cn1cnc(COC(=O)NC2CCCc3c2cn(C)c3C(=O)Nc2ccc(F)c(Cl)c2)n1 (single isomer, unassigned) [Compound 33, (1-Methyl-1H-1,2,4-triazol-3-yl)methyl (1-((3-chloro-4-fluorophenyl)carbamoyl)-2-methyl-4,5,6,7-tetrahydro-2H-isoindol-4-yl)carbamate] | 30
13 | Cn1cnc(COC(=O)NC2CCc3c2cn(C)c3C(=O)Nc2ccc(F)c(F)c2)n1 (single isomer, unassigned) [Compound 64, (1-methyl-1H-1,2,4-triazol-3-yl)methyl (1-((3,4-difluorophenyl)carbamoyl)-2-methyl-2,4,5,6-tetrahydrocyclopenta[c]pyrrol-4-yl)carbamate] | 410
14 | Cn1cc2c(c1C(=O)Nc1ccc(F)c(Cl)c1)CCC2NC(=O)OCc1nn[nH]n1 (racemic) [Compound 148, (2H-tetrazol-5-yl)methyl (1-((3-chloro-4-fluorophenyl)carbamoyl)-2-methyl-2,4,5,6-tetrahydrocyclopenta[c]pyrrol-4-yl)carbamate] | 1900
15 | Cn1cc2c(c1C(=O)Nc1ccc(F)c(Cl)c1)CCCC2=O [Compound 45, N-(3-chloro-4-fluorophenyl)-2-methyl-4-oxo-4,5,6,7-tetrahydro-2H-isoindole-1-carboxamide] | 70
16 | Cn1c(C(=O)Nc2ccc(F)c(Cl)c2)c2c(c1C1CC1)C(NC(=O)OCc1nc[nH]n1)CC2 (centres unmarked) [Compound 95, (1H-1,2,4-triazol-3-yl)methyl (1-((3-chloro-4-fluorophenyl)carbamoy1)-3-cyclopropy1-2-methyl-2,4,5,6-tetrahydrocyclopenta[c]pyrrol-4-yl)carbamate] | 15000
17 | Cn1cc2c(c1C(=O)Nc1ccc(F)c(Cl)c1)CCC2NC(=O)OCc1nnnn1C (single isomer, unassigned) [Compound 145, (1-Methyl-1H-tetrazol-5-yl)methyl (1-((3-chloro-4-fluorophenyl)carbamoyl)-2-methyl-2,4,5,6-tetrahydrocyclopenta[c]pyrrol-4-yl)carbamate] | 2700
18 | Cn1cc2c(c1C(=O)Nc1ccc(F)c(Cl)c1)CCCCC2=O [Compound 72, N-(3-chloro-4-fluorophenyl)-2-methyl-4-oxo-2,4,5,6,7,8-hexahydrocyclohepta[c]pyrrole-1-carboxamide] | 50
19 | Cc1cc(NC(=O)c2c3c(cn2C)C(NC(=O)OCc2ncn(C)n2)CC3)ccc1F (single isomer, unassigned) [Compound 62, (1-methyl-1H-1,2,4-triazol-3-yl)methyl (1-((4-fluoro-3-methylphenyl)carbamoyl)-2-methyl-2,4,5,6-tetrahydrocyclopenta[c]pyrrol-4-yl)carbamate] | 90
20 | Cn1cnc(COC(=O)NC2CCc3c2cn(C)c3C(=O)Nc2ccc(F)cc2)n1 (single isomer, unassigned) [Compound 65, (1-methyl-1H-1,2,4-triazol-3-yl)methyl (1-((4-fluorophenyl)carbamoyl)-2-methyl-2,4,5,6-tetrahydrocyclopenta[c]pyrrol-4-yl)carbamate] | 810

same assay, conditions: read-out: DE-19 bDNA EC50; HepDE19 cells, Tet-free medium, 7 day-incubation, rcDNA measured by Quantigene 2.0 bDNA assay, top concentration 25 μM

Row | Structure (SMILES) | EC50 [nM]
21 | COC(=O)NC1CCc2c1cn(C)c2C(=O)Nc1ccc(F)c(Cl)c1 (single isomer, unassigned) [Compound 4, Methyl 1-(3-chloro-4-fluorophenylcarbamoyl)-2-methyl-2,4,5,6-tetrahydrocyclopenta[c] pyrrol-4-ylcarbamate] | 50
22 | COC(=O)NC1CCCCc2c1cn(C)c2C(=O)Nc1ccc(F)c(Cl)c1 (single isomer, unassigned) [Compound 79, Methyl (1-((3-chloro-4-fluorophenyl)carbamoyl)-2-methyl-2,4,5,6,7,8-hexahydrocyclohepta[c]pyrrol-4-yl)carbamate] | 730
23 | COC(=O)NC1CCn2c(C(=O)Nc3ccc(F)c(Cl)c3)ccc21 (single isomer, unassigned) [Compound 38, Methyl (5-((3-chloro-4-fluorophenyl)carbamoyl)-2,3-dihydro-1H-pyrrolizin-1-yl)carbamate] | 4700
